Measurements as given in US10344026B2, “Compositions and methods of targeting mutant K-ras” (NANTBIO, INC., priority 2017, dated 2019).

Key:
Type in all cases: cell-based
[1] = target: T1, K-Ras G12D (Homo sapiens, UniProt P01116, G12D); assay: G-LISA Ras activation, 293H cells transfected with G12D mutant; settings: compound 1 hour
T1 construct: expressed in transfected cells; host or cells: 293H cells
Summary of the method: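 Seed 293H cells, transfect with Ras wild-type or mutant vector, treat with compound (3.125-25 μM, 1 h), stimulate wild-type cells with EGF (100 ng/ml, 2 min), lyse in ice-cold buffer, then measure GTP-Ras by G-LISA.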

[2] = test system: Ishikawa (K-Ras wild type cell line); assay: Viability assay (CellTiterBlue, 72 hr) Ishikawa; settings: Homo sapiens, GI50, CellTiterBlue, Ishikawa K-Ras wild-type
Summary of the method: (§1)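 Cells were seeded at 1000 per well and allowed 18 hr at 37 °C in CO2 before compound addition (final DMSO 0.5%). After 72 hr exposure, CellTiterBlue was added for 3 hr and fluorescence read at Ex550/Em590. GI50 values were calculated against DMSO (100%) and 100 uM tamoxifen (0%) controls.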

[3] = test system: U87-MG (K-Ras wild type cell line); assay: Viability assay (CellTiterBlue, 72 hr) U87-MG; settings: Homo sapiens, U-87 MG, GI50, CellTiterBlue, U87-MG K-Ras wild-type
Summary of the method: as §1

[4] = test system: HCC827 (K-Ras wild type cell line); assay: Viability assay (CellTiterBlue, 72 hr) HCC827; settings: Homo sapiens, GI50, CellTiterBlue, HCC827 K-Ras wild-type
Summary of the method: as §1

[5] = test system: A375 (K-Ras wild type cell line); assay: Viability assay (CellTiterBlue, 72 hr) A375; settings: Homo sapiens, A-375, GI50, CellTiterBlue
Procedure: Viability assays were performed on exemplary compounds and Table 2 below lists exemplary results for selected compounds tested on K-Ras wild type cell lines (Ishikawa, U87-MG, HCC827, and A375) and various K-Ras mutant cell lines (Panc1-G12D; Panc10.05-G12D; HCT116-G31D). Results are expressed in μM and corresponding structures are shown in FIGS. 2A-2G and Examples 1-152, above.
Cells are counted and seeded at 1000 cells/36 ul medium/well into 384-well microplates. Cells are returned to 37° C. CO2 incubator for 18 hr. Drug is made as 200× in DMSO and diluted into medium to 10×. To each well is added 4 ul 10× drug, and plates are returned to the incubator. Final assay DMSO concentration is 0.5%. After 72 hr, 8 ul CellTiterBlue (Promega) is added to each well. After 3 hr, fluorescence (Ex550/Em590) is determined on the Victor Plate Reader (Perkin Elmer). Assay range is determined by DMSO control (100% viability) and 100 uM tamoxifen (0% viability). GI50 values are calculated using Graphpad Prism.

[6] = test system: Panc1-G12D; assay: Viability assay (CellTiterBlue, 72 hr) Panc1; settings: Homo sapiens, PANC-1, GI50, CellTiterBlue, Panc1 K-Ras G12D, read-out: 72 hr Cell Viability Panc1 (G12D)
Summary of the method: as §1

[7] = test system: Panc10.05-G12D; assay: Viability assay (CellTiterBlue, 72 hr) Panc10.05; settings: Homo sapiens, Panc1005, GI50, CellTiterBlue, Panc10.05 K-Ras G12D, read-out: 72 hr Cell Viability Panc10.05 (G12D)
Summary of the method: as §1

[8] = test system: HCT116-G31D; assay: Viability assay (CellTiterBlue, 72 hr) HCT116; settings: Homo sapiens, HCT-116, GI50, CellTiterBlue, HCT116 K-Ras G13D, read-out: 72 hr Cell Viability HCT116 (G13D)
Summary of the method: as §1

[9] = test system: phospho-ERK in HCC827 (Wild-type); assay: In-Cell Western phospho-ERK, HCC827; settings: Homo sapiens, 1 h; HCC827, one hour treatment; read-out: In-Cell Western HCC827 (Wild-type) Erk (P)
Procedure: (§2) In-cell phosphorylation assays for Erk and Akt were performed on several of the compounds and exemplary results are shown in Table 3 below using HCC827 and A375 cell lines for wild type K-Ras and Panc1 and Panc10.05 cell lines for G12D K-Ras mutants. Results are expressed in μM and corresponding structures are shown in FIGS. 2A-2G and Examples 1-152, above.
(§3) Cells are seeded in complete medium into black sided, clear-bottom 384-well microplates at 3000 cells/[…]/well. Plates are returned to 37° C. CO2 incubator for 18 hr. Drug is made as 200× in DMSO and diluted into medium to 10×. To each well is added 4 ul 10× test article or controls, and plates are returned to the incubator. Final assay DMSO concentration is 0.5%. After one hour, cells are fixed in formaldehyde, rinsed & permeabilized with triton X-100, and blocked with BSA/Goat serum blocking solution. Primary phospho-Akt and phospho-ERK antibodies are added and plates are incubated overnight at 4° C. Plates are rinsed with Tween-20 wash buffer and secondary antibody (Goat anti-rabbit, Thermofisher) is added. After 2 hours, plates are rinsed in Tween-20 wash buffer, and then PBS. Plates are imaged on the Celigo (Nexcelom) and cellular fluorescence is quantitated. Full inhibition of phospho-Akt is achieved with 1 uM BEZ235 (Sellekchem), while full inhibition of phospho-ERK is achieved with 1 uM MEK Inhibitor II Calbiochem). EC50 values are calculated using Graphpad Prism.

[10] = test system: phospho-ERK in A375 (Wild-type); assay: In-Cell Western phospho-ERK, A375; settings: Homo sapiens, A-375, 1 h; A375, one hour treatment; read-out: In-Cell Western A375 (Wild-type) Erk (P)
Procedure: as §2, §3

[11] = test system: phospho-Akt in A375 (Wild-type); assay: In-Cell Western phospho-Akt, A375; settings: Homo sapiens, A-375, 1 h; A375, one hour treatment; read-out: In-Cell Western A375 (Wild-type) Akt (P)
Procedure: as §2, §3

[12] = test system: phospho-ERK in Panc1 (G12D); assay: In-Cell Western phospho-ERK, Panc1; settings: Homo sapiens, PANC-1, 1 h; Panc1, one hour treatment; read-out: In-Cell Western Panc1 (G12D) Erk (P)
Summary of the method: (§4)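 Read-out: imaged cellular fluorescence after phospho-ERK/phospho-Akt immunostaining; EC50 derived. Cells plated 3000/well, 18 hr 37° C, compound 1 hr, 0.5% DMSO. Full-inhibition controls: 1 uM BEZ235 (pAkt), 1 uM MEK Inhibitor II (pERK).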

[13] = test system: phospho-Akt in Panc1 (G12D); assay: In-Cell Western phospho-Akt, Panc1; settings: Homo sapiens, PANC-1, 1 h; Panc1, one hour treatment; read-out: In-Cell Western Panc1 (G12D) Akt (P)
Summary of the method: as §4

[14] = test system: phospho-ERK in Panc10.05 (G12D); assay: In-Cell Western phospho-ERK, Panc10.05; settings: Homo sapiens, Panc1005, 1 h; Panc10.05, one hour treatment; read-out: In-Cell Western Panc10.05 (G12D) Erk (P)
Summary of the method: as §4

[15] = test system: phospho-Akt in Panc10.05 (G12D); assay: In-Cell Western phospho-Akt, Panc10.05; settings: Homo sapiens, Panc1005, 1 h; Panc10.05, one hour treatment; read-out: In-Cell Western Panc10.05 (G12D) Akt (P)
Summary of the method: as §4

T1 sequence (P01116 whole entry G12D): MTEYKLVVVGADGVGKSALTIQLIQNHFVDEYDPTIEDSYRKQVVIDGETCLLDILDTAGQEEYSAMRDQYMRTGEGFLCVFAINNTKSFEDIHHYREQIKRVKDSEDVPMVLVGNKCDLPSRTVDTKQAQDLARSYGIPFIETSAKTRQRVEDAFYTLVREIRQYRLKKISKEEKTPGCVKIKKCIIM

| SMILES | IC50 [1] [µM] | IC50 [2] [µM] | IC50 [3] [µM] | IC50 [4] [µM] | IC50 [5] [µM] | IC50 [6] [µM] | IC50 [7] [µM] | IC50 [8] [µM] | EC50 [9] [µM] | EC50 [10] [µM] | EC50 [11] [µM] | EC50 [12] [µM] | EC50 [13] [µM] | EC50 [14] [µM] | EC50 [15] [µM] |
| --- | --- | --- | --- | --- | --- | --- | --- | --- | --- | --- | --- | --- | --- | --- | --- |
| CC(C)c1cc(C(=O)Nc2nc(-c3ccc4c(c3)CCC(=O)N4)cs2)n(C)n1 [Compound 44, 3-isopropyl-1-methyl-N-(4-(2-oxo-1,2,3,4-tetrahydroquinolin-6-yl)thiazol-2-yl)-1H-pyrazole-5-carboxamide] | 4 | > 25 | > 25 | > 25 | > 25 | > 25 | 2 | > 25 | > 25 | > 25 | > 25 | > 25 | > 25 | > 25 | > 25 |
| Cc1nc(C)c(C(=O)Nc2nc(-c3ccc4c(c3)CCC(=O)N4CCC(=O)N(C)C)cs2)o1 [Compound 103, N-(4-(1-(3-(dimethylamino)-3-oxopropyl)-2-oxo-1,2,3,4-tetrahydroquinolin-6-yl)thiazol-2-yl)-2,4-dimethyloxazole-5-carboxamide] | 14.9 | > 25 | > 25 | > 25 | > 25 | > 25 | 5 | 25 | 14 | 29 | > 25 | > 25 | > 25 | > 25 | > 25 |
| CCn1nc(C2CC2)cc1C(=O)Nc1nc(-c2ccc3c(c2)CCC(=O)N3)cs1 [Compound 45, 3-cyclopropyl-1-ethyl-N-(4-(2-oxo-1,2,3,4-tetrahydroquinolin-6-yl)thiazol-2-yl)-1H-pyrazole-5-carboxamide] | 8.8 | > 25 | > 25 | > 25 | > 25 | > 25 | 3 | > 25 | > 25 | > 25 | > 25 | > 25 | > 25 | 6 | 11 |
| CCn1nccc1C(=O)Nc1nc(-c2ccc3c(c2)CCC(=O)N3)cs1 [Compound 46, 1-ethyl-N-(4-(2-oxo-1,2,3,4-tetrahydroquinolin-6-yl)thiazol-2-yl)-1H-pyrazole-5-carboxamide] | 22.5 | > 25 | > 25 | > 25 | > 25 | > 25 | 11 | > 25 | > 25 | > 25 | > 25 | > 25 | > 25 | 11 | 13 |
| Cn1nc(C(F)F)cc1C(=O)Nc1nc(-c2ccc3c(c2)CCC(=O)N3)cs1 [Compound 49, 3-(difluoromethyl)-1-methyl-N-(4-(2-oxo-1,2,3,4-tetrahydroquinolin-6-yl)thiazol-2-yl)-1H-pyrazole-5-carboxamide] | 12.3 | > 25 | > 25 | > 25 | > 25 | > 25 | > 25 | > 25 | > 25 | > 25 | > 25 | > 25 | > 25 | 19 | 20 |
| Cc1nc(C)c(C(=O)Nc2nc(-c3ccc4c(c3)CCC(=O)N4Cc3cccnc3)cs2)s1 [Compound 105, 2,4-dimethyl-N-(4-(2-oxo-1-(pyridin-3-ylmethyl)-1,2,3,4-tetrahydroquinolin-6-yl)thiazol-2-yl)thiazole-5-carboxamide] | 10.4 | > 25 | > 25 | > 25 | 25 | 12 | 2 | 13 | 19 | > 25 | > 25 | 5 | > 25 | 11 | > 25 |
